In US20230241088A1, “COMPOSITION FOR PREVENTING OR TREATING LUNG CANCER COMPRISING ORTHO-TOPOLIN RIBOSIDE AS ACTIVE INGREDIENT” (CHUNG-ANG UNIVERSITY INDUSTRY-ACADEMY COOPERATION FOUNDATION, priority 2022, published 2023):

Experiments:
A549 cells [1] = test: Glycolytic function analysis (Seahorse XFe24, glycoPER); type: cell-based, Human; conditions: oTR 5, 10, and 50 μM, 48 hours, FIG. 5A
Protocol: (§1) Mitochondrial and glycolytic functions were assessed using Seahorse XFe24 analyzer (Agilent Technologies, Lexington, Mass., USA). A549 cells were seeded in a cell culture plate at a density of 1.5×10^4 cells/well. Cells were treated with oTR (5, 10, and 50 μM) for 48 hours after achieving approximately 70-80% confluency. The glycolytic and mitochondrial functions were determined by measuring the proton efflux rate (PER) and oxygen consumption rate (OCR), respectively. Glycolytic PER (glycoPER) was obtained by subtracting mitochondria-derived protons from the total PER. The analyses were conducted according to the manufacturer's instructions.
To investigate real-time changes in cellular metabolic functions, glycoPER (pmol H+/min) and OCR were analyzed (FIG. 5). GlycoPER reflects glycolytic functions, and OCR reflects mitochondrial respiration. […] Measurement of compensatory glycolysis was achieved by blocking oxidative phosphorylation using rotenone/antimycin.

A549 cells [2] = test: Mitochondrial function analysis (Seahorse XFe24, OCR); type: cell-based, Human
Protocol: as §1
To measure ATP production, oligomycin, an ATPase inhibitor, was added to the cells to inhibit mitochondria-derived ATP synthesis. Then, when carbonyl cyanide-4-(trifluoromethoxy)phenylhydrazone (FCCP), a mitochondrial oxidative phosphorylation uncoupler, was added to the cells, the OCR reached the maximal level, indicating maximal mitochondrial respiration. Spare respiratory capacity (SRC) indicates the amount of extra ATP produced by oxidative phosphorylation when energy demand of the cells increases suddenly. […] To determine the mitochondrial fuel source (glucose, glutamine, and fatty acid) that was better utilized in NSCLC cells, investigation was performed on the OCR of each fuel source in the absence and presence of each inhibitor. UK5099 (for glucose), BPTES (for glutamine), and etomoxir (for fatty acid).

A549 cells [3] = test: Measurement of H2O2 content; type: cell-based, Human; conditions: oTR 5, 10, and 50 μM, 48 hours, dose-dependent
Protocol: A549 cells were seeded at a density of 2×10^5 cells/mL in a 6-well plate and treated with oTR (5, 10, and 50 μM) or an equal volume of DMSO (control) for 48 hours. H2O2 content was measured according to a previously described method with some modifications added. Briefly, the cell pellets were extracted with 1 mL of 0.1% TCAA, and the extracts were homogenized and centrifuged at 15,000×g at 4° C. for 10 minutes. Potassium phosphate buffer (10 mM; 0.5 mL) and 1 M KI (1 mL) were added to 0.5 mL of the supernatant. The mixture was then incubated for 15 minutes at room temperature in the dark and measured at 390 nm. For normalization, protein concentration was determined using Bio-Rad protein assay kit with BSA as a standard.

A549 cells [4] = test: BrdU cell proliferation assay; type: cell-based, Human
Protocol: The siRNA sequences for ERK1/2 (5′-CCCUGACCCGUCUAAUA-3′ SEQ ID NO: 1), AKT (5′-GAAGGAAGU CAUCGUGCCCAA-3′ SEQ ID NO: 2), and scrambled siRNA (SN-1001-CFG) were purchased from Bioneer (Daejeon, Korea). Cells were transfected with siRNA using Lipofectamine 3000 (Invitrogen, Carlsbad, Calif., USA) according to the manufacturer's instructions.
The 5-bromo-2-deoxyuridine (BrdU) cell proliferation assay was performed according to a previously described method. A549 cells (1×10^4) were grown to approximately 70-80% confluency in 96-well plates and treated with oTR (5, 10, and 50 μM) for 48 hours in the presence or absence of U0126, wortmannin, siERK1/2, and siAKT. Cell proliferation was measured using the Cell Proliferation ELISA, BrdU (colorimetric) kit (Roche Diagnostics, Penzberg, Germany), according to the manufacturer's instructions.

A549 cells [5] = test: Annexin V-FITC/propidium iodide flow cytometric apoptosis analysis; type: cell-based, Human; conditions: 48 hours
Protocol: To detect apoptotic cells, flow cytometric analysis was performed using Annexin V-FITC/propidium iodide double staining of NSCLC cells. A549 cells (4×10^5) were grown to approximately 70-80% confluency in 60 mm dish and treated with oTR (5, 10, and 50 μM) for 48 hours. The cells were stained using the FITC Annexin V Apoptosis Detection Kit (556547, BD Biosciences, Franklin Lakes, N.J., USA) as previously described.

[6] = system: p-ERK, ERK, p-AKT, AKT, cleaved caspase-3 in NSCLC tumor tissue; test: Immunoblot analysis of NSCLC tumor tissue lysates; type: in vivo, nude mice (female, BALB/cSlc-nu/nu); conditions: FIG. 7
Protocol: The immunoblot analysis was carried out according to a previously described method. A549 cells (4×10^5) were grown to approximately 70-80% confluency and treated with oTR (5, 10, and 50 μM) for 48 hours. The cell lysates and tissue lysates were prepared and subjected to SDS-PAGE for immunoblotting with the respective antibodies. Anti-caspase-3 (9662), anti-p-AKT (4058), and anti-AKT (9272) antibodies were purchased from Cell Signaling Technology (Danvers, Mass., USA). Anti-ERK1/ERK2 (MAB1576) and anti-p-ERK1/ERK2 (AF1018) were purchased from R&D Systems (Minneapolis, Minn., USA). Anti-LC-III (NB100-2331) antibody was purchased from Novus Biologicals (Littleton, Colo., USA). Anti-β-actin (sc-47778) and anti-GAPDH (sc-47724) antibody was purchased from Santa Cruz Biotechnology (Santa Cruz, Calif., USA).

[7] = oTR-treated NSCLC tumor tissues

OC[C@H]1O[C@@H](n2cnc3c(NCc4ccccc4O)ncnc32)[C@H](O)[C@@H]1O [oTR, ortho topolin riboside]
basal and compensatory glycolytic rates (glycoPER) (A549 cells [1]): significant decrease
glucose oxidation (mitochondrial fuel capacity) (A549 cells [2]; oTR 10 μM, FIG. 5C): did not differ
glutamine and fatty acid oxidations (mitochondrial fuel capacity) (A549 cells [2]; oTR 10 μM, FIG. 5C): significantly reduced
OCR (oxygen consumption rate) (A549 cells [2]; oTR 5, 10, and 50 μM, 48 hours, FIG. 5B): reduced
basal OCR, ATP production, and SRC (A549 cells [2]; oTR-treated vs untreated A549 cells): Significant reduction
H2O2 content (A549 cells [3]): significantly increased
antiproliferative effect of oTR in presence of ERK inhibitors (U0126) or AKT inhibitors (wortmannin) (A549 cells [4]; U0126 (20 μM) or wortmannin (5 μM), FIG. 6D): significantly weakened
cell proliferation (BrdU) (A549 cells [4]; oTR 5, 10, and 50 μM, 48 hours, dose-dependent, FIG. 6A): significantly inhibited
oTR-induced antiproliferative activity in ERK or AKT knockdown cells (A549 cells [4]; siERK 1/2 (200 nM) or siAKT (200 nM), FIG. 6D): significantly inhibited
increase in percentage of late apoptotic cells compared to untreated NSCLC cells (A549 cells [5]; 10 μM oTR): 5.70±0.16%
increase in percentage of late apoptotic cells compared to untreated NSCLC cells (A549 cells [5]; 50 μM oTR): 24.56±9.37%
expression of cleaved caspase-3 ([6]; oTR (150 mg/kg)-treated group): significantly increased
ERK expression [6, 7]: significant increase
p-AKT and AKT expressions [6, 7]: no significant changes
p-ERK expression [6, 7]: significant decrease
